The target of the experiment is Aurora kinase A (Homo sapiens) (UniProt O14965). Nature of the experiment: Inhibition of aurora 2.

pKi: −log10 of the molar value.

Sequence of Aurora kinase A (Homo sapiens) (O14965 whole entry, looked up): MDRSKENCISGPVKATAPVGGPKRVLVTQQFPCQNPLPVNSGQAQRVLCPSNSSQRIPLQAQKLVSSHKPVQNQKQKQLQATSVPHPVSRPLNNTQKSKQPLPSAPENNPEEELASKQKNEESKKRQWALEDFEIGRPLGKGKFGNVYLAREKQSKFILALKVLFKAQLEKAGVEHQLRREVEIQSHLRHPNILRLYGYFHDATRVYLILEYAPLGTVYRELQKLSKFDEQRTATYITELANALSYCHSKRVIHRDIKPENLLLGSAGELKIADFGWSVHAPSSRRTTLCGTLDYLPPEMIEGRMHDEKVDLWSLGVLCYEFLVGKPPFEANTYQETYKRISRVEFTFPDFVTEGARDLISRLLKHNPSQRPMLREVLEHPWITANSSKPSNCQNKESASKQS

For the molecule `c1ccc(CCNc2nc(-c3ccc4[nH]ncc4c3)cs2)cc1` [4-(1H-indazol-5-yl)-N-phenethylthiazol-2-amine], the pKi – broadly, −log10 of the Ki, conventionally taken in molar units – was 6.09.

Molecule `c1ccc(Nc2nc(-c3ccc4[nH]ncc4c3)c(-c3ccccc3)s2)cc1` [4-(1H-indazol-5-yl)-N,5-diphenylthiazol-2-amine] showed a pKi of less than 5.31.

On to `c1cn2c(NC3CCCCC3)c(-c3ccc4[nH]ncc4c3)nc2cn1` [N-cyclohexyl-2-(1H-indazol-5-yl)imidazo[1,2-a]pyrazin-3-amine], for which the pKi was 5.68.

`Fc1ccc(-c2ncn(CCCN3CCOCC3)c2-c2ccc3[nH]ncc3c2)cc1` [4-(3-(4-(4-fluorophenyl)-5-(1H-indazol-5-yl)-1H-imidazol-1-yl)propyl)morpholine] had a pKi of less than 5.31.

As to `c1ccc(-c2c(-c3ccc4[nH]ncc4c3)nc3ncccn23)cc1` [2-(1H-indazol-5-yl)-3-phenylimidazo[1,2-a]pyrimidine], the pKi was less than 5.31.

`c1ccn2c(NC3CCCCC3)c(-c3ccc4[nH]ncc4c3)nc2c1` [N-cyclohexyl-2-(1H-indazol-5-yl)imidazo[1,2-a]pyridin-3-amine] showed a negative logarithm of the Ki (pKi) of 5.06.

`Clc1ccc(Nc2c(-c3ccc4[nH]ncc4c3)nc3ncccn23)cc1` [N-(4-chlorophenyl)-2-(1H-indazol-5-yl)imidazo[1,2-a]pyrimidin-3-amine] gave a pKi of 5.55.

In turn, `CCCCNc1c(-c2ccc3[nH]ncc3c2)nc2ncccn12` [N-butyl-2-(1H-indazol-5-yl)imidazo[1,2-a]pyrimidin-3-amine] had a pKi of less than 5.31.

As to `c1ccc(CNc2nc(-c3ccc4[nH]ncc4c3)c(-c3ccccc3)s2)cc1` [N-benzyl-4-(1H-indazol-5-yl)-5-phenylthiazol-2-amine], the pKi was less than 5.31.

On to `Fc1ccc(-c2ncn(C3CCN(Cc4ccccc4)C3)c2-c2ccc3[nH]ncc3c2)cc1` (centres undefined) [5-(1-(1-benzylpyrrolidin-3-yl)-4-(4-fluorophenyl)-1H-imidazol-5-yl)-1H-indazole], for which the negative-log Ki (pKi) is less than 5.31.

As to `Nc1nc(-c2ccc3[nH]ncc3c2)cs1` [4-(1H-indazol-5-yl)thiazol-2-amine], the pKi was 5.67.

In turn, `CCNc1nc(-c2ccc3[nH]ncc3c2)cs1` [N-ethyl-4-(1H-indazol-5-yl)thiazol-2-amine] had a pKi of 5.47.

Molecule `Cc1nc(-c2ccc3[nH]ncc3c2)cs1` [4-(1H-indazol-5-yl)-2-methylthiazole] had a pKi of 5.35.

For `CN(C)CCn1cnc(-c2ccc(F)cc2)c1-c1ccc2[nH]ncc2c1` [2-(4-(4-fluorophenyl)-5-(1H-indazol-5-yl)-1H-imidazol-1-yl)-N,N-dimethylethanamine], the negative logarithm of the Ki (pKi) was less than 5.31.

The record behind these values is BindingDB's records for doi:10.1016/j.bmcl.2011.01.001 (Abbott Laboratories, 2011).
